What was measured:
[1] = test system: Dictyostelium cells; experiment: Micropipette aspiration cortical tension, Dictyostelium; assay type: cell-based, Dictyostelium discoideum
Protocol: Micropipette aspiration was used for cortical tension and creep response measurements. Confocal imaging was performed on a Zeiss 510 Meta with a 63× (numerical aperture [NA] 1.4) objective (Carl Zeiss, Jena, Germany). Epifluorescence and TIRF imaging was performed in a 22° C. temperature controlled room with an Olympus IX81 microscope using a 40× (NA 1.3) or 60× (NA 1.49) objective and a 1.4× optovar (Olympus, Center Valley, Pa.), as previously described. Image analysis was performed with ImageJ (rsb.info.nih.gov/ij).
The instrumental and experimental setups have been previously described (Effler J C, et al., 2006; Kee Y-S, et al., 2013). Micropipette aspiration assays were all carried out in growth media with 0.1% DMSO. For cortical tension measurements of Dictyostelium cells, pressure was applied to the cell cortex with a micropipette (2-3 m radius, Rp) to the equilibrium pressure (ΔP) where the length of the cell inside the pipette (Lp) was equal to Rp. The effective cortical tension (Teff) was calculated by applying the Young-Laplace equation: ΔP=2Teff(1/Rp-1/Rc), where Rc is the radius of the cell and ΔP is the equilibrium pressure when Lp=Rp (Derganc J, et al., 2000; Octtaviani E, et al., 2006). For creep tests on mammalian strains, a constant aspiration stress was applied over 60 s. The micropipette radius was 3.5-4.5 m. For quantification, the Lp/Rp ratio values was measured every two seconds and plotted as a function of time. A10.7 and HEK293 cells could only be aspirated at a low pressure range (0.15 nN/μm^2), while HPDE, ASPC-1, and HL-60 cells could be aspirated at higher pressure ranges (0.25 nN/μm^2) because they were stiffer.

[2] = test system: chicken non-muscle IIB (NMIIB) HMM; experiment: In vitro motility assay (gliding actin filaments); assay type: biochemical; conditions: 500 nM each alone; 250 nM each in 1:1 ratio
Excerpt: The sedimentation assays were used to assess myosin II assembly in cells. The assembly assay used purified proteins (N-terminal 6×His tag (SEQ ID NO: 1), fused to the mCherry fluorophore, fused to the assembly domains of Dictyostelium myosin II (residues 1533-1823), human myosin IIA (residues 1722-1960), and human myosin IIB (residues 1729-1976), and 6×His-tagged (SEQ ID NO: 1) fused Dictyostelium 14-3-3). Purified chicken nonmuscle IIB heavy meromyosin (HMM) was used for in vitro motility.
The chicken non-muscle IIB (NMIIB) HMM construct (residues 1-1228, GenBank™ accession number M93676, no splice insert) was purified as previously described (Norstrom M F, et al., 2010). Motility assays were performed at 22° C. and imaged on Zeiss Axiovert 200 microscope with an Andor Luca camera. The flow cells were constructed using a glass slide, two pieces of double-sided tape, and nitrocellulose-coated coverslip. Flow cells were incubated with 0.05 mg/ml green fluorescent protein antibodies (MP Biomedicals, 0.05 mg/ml in assay buffer (AB) without DTT: 25 mM KCl, 25 mM Imidazole·HCl, pH 7.5, 1 mM K·EGTA, 4 mM MgCl2; 2 min incubation time), followed by a bovine serum albumin block (1 mg/ml in AB—as above with 10 mM DTT; 6 min incubation time). NMIIB was added to the flow cell at a concentration of 420 nM and incubated for 2 min. […]

SMILES	effect on cortical tension ([1]; WT cells)	non-muscle myosin IIB velocity (gliding filament velocity of actin filaments) [2]	change in cortical tension, myosin II null cells ([1]; myoI null cells as printed)	change in cortical tension, S456L myosin cells ([1]; myoII::GFP-S456L cells)
Nc1ccc(Cl)c(Cl)c1 [3,4-DCA, 3,4-dichloroaniline]	had no effect	no significant effect	–	–
CC(=O)c1ccc(O)cc1 [4-HAP, 4-hydroxyacetophenone]	–	no significant effect	did not experience a similar shift in mechanics	did not have a change in cortical tension

— patent US11834401B2, “Treating and preventing diseases by modulating cell mechanics” (THE JOHNS HOPKINS UNIVERSITY, priority 2013, dated 2023)
